Test results from PMC12380353, “MK-8527 is a novel inhibitor of HIV-1 reverse transcriptase translocation with potential for extended-duration dosing” (PLOS Biology, 2025).
Where two headings read alike, the source gives them in different places.

Columns and labels:
HIV-1 = experiment: Single-cycle antiviral assay in PBMCs; type: cell-based
Protocol: To evaluate the ability of inhibitors to prevent HIV-1 infection in primary cells, human PBMCs obtained from Biological Specialty Corporation (Colmar, PA, USA) were used to assess antiviral activity. The proviral variants used for these studies were generated by site-directed mutagenesis in a proviral vector derived from NL43 [52] that encodes GFP (pNLG1-P2A-GFP). Virus was produced by transfection in 293T cells.
PBMCs were activated with phytohemagglutinin (PHA) at 5 μg/mL in Roswell Park Memorial Institute (RPMI) 1640 medium containing 10% heat-inactivated fetal bovine serum (FBS) for 2–3 days. Compound plates were prepared by dispensing compounds dissolved in DMSO into 384-well poly-d-lysine-coated plates (0.2 μL per well) using an Echo acoustic dispenser (Labcyte; San Jose, CA, USA). Each compound was tested in a 10-point serial 3-fold dilution (typical final concentrations: 5,000 to 0.1 nM). Controls included no inhibitor (DMSO only) and a combination of 3 antiviral agents, efavirenz, indinavir, and the integrase strand transfer inhibitor, L-002254051, at final concentrations of 4 μM each. PHA-activated human PBMCs were washed and resuspended in RPMI 1640 containing 10% NHS and 30 units per mL of interleukin-2 (IL-2) at 6 × 10^5 cells per mL. PBMCs were added to the compound plates and cultured for 24 h at 37 °C, 5% CO2, and 90% humidity. The appropriate HIV-1 variant was added to the PBMCs and cultured at 37 °C, 5% CO2, and 90% humidity for an additional 24 h.
HIV-1–infected cells were quantified by counting the number of GFP cells in each well using an Acumen eX3 scanner (SPT Labtech; Melbourn, UK).

[1] = biological target: T1, human mitochondrial DNA polymerase γ (Homo sapiens, UniProt P54098); experiment: Human mitochondrial DNA polymerase γ inhibition assay; type: biochemical; conditions: highest concentration tested 200 µM
T1 sequence (P54098 1-1239): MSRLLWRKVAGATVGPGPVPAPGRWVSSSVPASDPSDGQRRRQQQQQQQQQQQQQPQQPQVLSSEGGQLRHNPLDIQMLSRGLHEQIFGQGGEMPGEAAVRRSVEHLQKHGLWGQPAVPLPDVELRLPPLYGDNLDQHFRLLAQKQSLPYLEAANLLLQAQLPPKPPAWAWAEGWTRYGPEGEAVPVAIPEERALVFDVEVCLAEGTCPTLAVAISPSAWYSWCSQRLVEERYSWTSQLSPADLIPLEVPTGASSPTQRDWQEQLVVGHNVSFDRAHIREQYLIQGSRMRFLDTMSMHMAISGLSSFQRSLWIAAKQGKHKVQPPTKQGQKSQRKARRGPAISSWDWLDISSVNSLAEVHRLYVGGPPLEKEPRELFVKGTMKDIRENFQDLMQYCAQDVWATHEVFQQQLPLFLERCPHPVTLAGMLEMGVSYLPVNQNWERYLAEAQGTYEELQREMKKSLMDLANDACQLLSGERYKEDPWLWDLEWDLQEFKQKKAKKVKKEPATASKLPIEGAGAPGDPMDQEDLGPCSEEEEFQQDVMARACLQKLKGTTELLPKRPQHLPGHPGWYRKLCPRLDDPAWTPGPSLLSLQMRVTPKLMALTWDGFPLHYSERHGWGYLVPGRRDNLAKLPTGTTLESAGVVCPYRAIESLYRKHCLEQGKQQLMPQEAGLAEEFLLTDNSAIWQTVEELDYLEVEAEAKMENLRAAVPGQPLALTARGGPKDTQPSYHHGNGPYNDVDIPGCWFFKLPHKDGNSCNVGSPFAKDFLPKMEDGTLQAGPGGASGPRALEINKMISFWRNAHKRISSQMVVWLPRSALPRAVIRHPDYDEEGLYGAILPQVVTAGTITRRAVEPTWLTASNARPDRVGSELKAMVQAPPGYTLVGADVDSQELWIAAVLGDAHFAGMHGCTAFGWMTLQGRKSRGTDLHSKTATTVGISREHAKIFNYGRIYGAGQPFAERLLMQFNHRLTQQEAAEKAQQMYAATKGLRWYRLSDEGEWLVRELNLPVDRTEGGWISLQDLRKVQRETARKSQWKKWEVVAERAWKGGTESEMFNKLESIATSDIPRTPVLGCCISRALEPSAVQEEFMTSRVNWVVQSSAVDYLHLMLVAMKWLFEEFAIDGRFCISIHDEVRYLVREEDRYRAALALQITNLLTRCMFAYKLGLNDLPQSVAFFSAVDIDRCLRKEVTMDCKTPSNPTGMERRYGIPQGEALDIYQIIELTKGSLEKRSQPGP
Protocol: The activities of human DNA polymerases α, β, and γ were measured in radiolabeled nucleotide incorporation assays. TP was prepared as a 10-point titration with 3-fold serial dilution in water. Reaction buffers for the DNA polymerase α and β assays both contained 20 mM Tris pH 7.5, 10 mM MgCl2, 50 μM EDTA, 200 μg/mL bovine serum albumin (BSA), 2 mM dithiothreitol (DTT), 1.6 μM each of dNTP (dATP, dCTP, dGTP, and dTTP), 20 μCi/mL [α33P]dATP, 0.1 mg/mL gapped activated fish sperm DNA template, test compound, and 0.005 U/μL DNA polymerase α or 0.0025 U/μL DNA polymerase β. The reaction buffer for DNA polymerase γ contained 20 mM Tris pH 8, 10 mM MgCl2, 50 mM KCl, 100 μg/mL BSA, 2 mM β-mercaptoethanol, 10 μM of each dNTP (dATP, dCTP, dGTP, and dTTP), 20 μCi/mL [α33P]dATP, 0.04 mg/mL gapped activated fish sperm DNA template, test compound, and 0.0003 μg/μL DNA polymerase γ. The 50-μL reactions were incubated at room temperature for 30 min (for β and γ) or 90 min (for α) before terminating with the addition of 50 μL 500 mM EDTA. The reaction mixtures were transferred to a Millipore DE81 filter plate (EMD Millipore; Hayward, CA), washed with 0.5 M sodium phosphate pH 7.0, and dried. After addition of 40 μL scintillant to each well, the incorporation of labeled dATP was determined with a microplate counter (TopCount NXT HTS; PerkinElmer, Shelton, CA, USA).

Row | Compound | PBMC IC50 (HIV-1; HIV-1, single-cycle assay, human PBMCs, 10% NHS) | IC50 (HIV-1; Human immunodeficiency virus 1, PBMC, read-out: PBMC IC50, HIV-1, single-cycle assay, human PBMCs, 10% NHS) [pM] | IC50 (HIV-1; read-out: PBMC IC50, HIV-1, single-cycle assay, human PBMCs, 10% NHS, listed as MK-8527) [pM] | Inhibitory activity [1]
1 | C#C[C@]1(CO)O[C@@H](n2ccc3c(N)nc(Cl)nc32)C[C@@H]1O [Compound 12, (2R,3S,5R)-5-(4-amino-2-chloro-7H-pyrrolo[2,3-d]pyrimidin-7-yl)-2-ethynyl-2-(hydroxymethyl)tetrahydrofuran-3-ol] | subnanomolar potency | 200 | 210 ± 90 | –
2 | C#C[C@]1(COP(=O)(O)OP(=O)(O)OP(=O)(O)O)O[C@@H](n2ccc3c(N)nc(Cl)nc32)C[C@@H]1O [MK-8527-TP] | – | – | – | no inhibitory activity
